In the experiment the test system is standard laboratory SEPTTR isolate (SI SEPTTR); Mycosphaerella graminicola; Anamorph: Septoria tritici. In words: Leaf blotch of wheat fungicidal activity, Type A assay (technical grade in acetone/water with Triton X-100, booth sprayer), standard laboratory isolate. As to conditions: Zymoseptoria tritici, 24 h, 1 Day Protectant, wheat seedlings (Yuma), read-out: Disease control, SI SEPTTR Type A Assay (50 ppm) 1DP. The format is in vivo, Mycosphaerella graminicola on wheat plants (variety Yuma). The method, then:
Evaluation of Fungicidal Activity: Leaf Blotch of Wheat (Mycosphaerella graminicola; Anamorph: Septoria tritici; Bayer code SEPTTR):
For Type A assays, technical grades of the experimental fungicides in Table 4 below were dissolved in acetone, and then mixed with nine volumes of water containing 110 ppm Triton X-100. The fungicide solutions were applied onto wheat seedlings using an automated booth sprayer. For Type B assays, emulsifiable concentrate (EC) formulations of technical grades of experimental fungicides in Table 4 below were prepared at 10% (w/v), and then mixed with 150 volumes of 0.1% Trycol 5941. The fungicide solutions were applied onto wheat seedlings using an automated track sprayer at 200 L/ha. All sprayed plants were allowed to air dry prior to further handling.
Wheat plants (variety Yuma) were grown from seed in a greenhouse in 50% mineral soil/50% soil-less Metro mix until the first leaf was fully emerged, with 7-10 seedlings per pot. Prior to or after application of experimental fungicides, plants were inoculated either with spores of a standard laboratory SEPTTR isolate (SI SEPTTR) or with spores from a SEPTTR field isolate collected from Wellsbourne, England in 2012 (FI SEPTTR). After inoculation, the plants were kept for 3 days at 20° C. in 100% relative humidity (one day in a dark dew chamber followed by two days in a lighted dew chamber). Plants were then transferred to a 20° C. greenhouse for disease development. When disease symptoms were fully expressed on untreated plants, infection levels on treated plants were assessed on a scale of 0 to 100 percent disease severity. Percent disease control was calculated using the ratio of disease severity on treated plants relative to untreated plants.
For `COc1ccc(-c2ccc(C(O)(c3cncnc3)C(C)(C)C)cc2)cc1` (stereo not shown) [Compound 13], the pest or weed control at 50 ppm lay within 80 to 100%.

With `CC(C)(C)C(O)(c1ccc(-c2ccc(C(F)(F)F)cc2F)cc1)c1cncnc1` (stereo not shown) [Compound 29], the pest or weed control at 50 ppm lay within 80 to 100%.

For `CC(C)(C)C(O)(c1ccc(-c2ccc(CC#N)cc2)cc1)c1cccnc1` (stereo not shown) [Compound 59], the pest or weed control at 50 ppm fell in the range of 80 to 100%.

`Cc1cc(-c2ccc(SC(F)(F)F)cc2)ccc1C(O)(c1cncnc1)C(C)(C)C` (stereo not shown) [Compound 35]: the pest or weed control at 50 ppm was in the range of 80 to 100%.

For the molecule `COc1cc(-c2ccc(C(C)(C)C)cc2)ccc1C(O)(c1cncnc1)C(C)(C)C` (stereo not shown) [Compound 51], the pest or weed control at 50 ppm is 80 to 100%.

For `CC(C)(C)C(O)(c1ccc(-c2ccc(OC(F)(F)F)cc2)cc1)c1cccnc1` (stereo not shown) [Compound 54], the pest or weed control at 50 ppm was 80 to 100%.

For `Cc1cc(-c2ccc(C#N)cc2)ccc1C(O)(c1cncnc1)C(C)(C)C` (stereo not shown) [Compound 37], the pest or weed control at 50 ppm lay within 80 to 100%.

As to `Cc1cc(-c2ccc(CC#N)cc2)ccc1C(O)(c1cncnc1)C(C)(C)C` (stereo not shown) [Compound 43], the pest or weed control at 50 ppm was in the range of 40 to 59%.

On to `CC(C)(C)C(O)(c1ccc(-c2ccc(C(F)(F)F)nc2)cc1)c1cncnc1` (stereo not shown) [Compound 7], for which the pest or weed control at 50 ppm lay within 80 to 100%.

Consider `Cc1cc(OC(F)(F)F)ccc1-c1ccc(C(O)(c2cncnc2)C(C)(C)C)c(C)c1` (stereo not shown) [Compound 40], for which the pest or weed control at 50 ppm is 80 to 100%.

In the case of `CC(C)(C)C(O)(c1cncnc1)c1ccc(-c2ccccc2)cc1Cl` (stereo not shown) [Compound 27], the pest or weed control at 50 ppm fell in the range of 80 to 100%.

Turning to `CC(C)(C)c1ccc(-c2ccc(C(O)(c3cncnc3)C(C)(C)C)cc2)cc1` (stereo not shown) [Compound 33], the pest or weed control at 50 ppm lay within 80 to 100%.

With `Cc1cc(-c2ccc(OC(F)F)cc2)ccc1C(O)(c1cncnc1)C(C)(C)C` (stereo not shown) [Compound 36], the pest or weed control at 50 ppm lay in the range of 80 to 100%.

On to `COc1cc(-c2ccc(C3(C#N)CC3)cc2)ccc1C(O)(c1cncnc1)C(C)(C)C` (stereo not shown) [Compound 49], for which the pest or weed control at 50 ppm lay in the range of 80 to 100%.

`COc1cc(-c2ccc(OC(F)(F)F)cc2C)ccc1C(O)(c1cncnc1)C(C)(C)C` (stereo not shown) [Compound 52]: the pest or weed control at 50 ppm was 60 to 79%.

Regarding `CC(C)(C)c1ccc(-c2ccc(C(O)(c3cccnc3)C(C)(C)C)cc2)cc1` (stereo not shown) [Compound 62], the pest or weed control at 50 ppm lay in the range of 80 to 100%.

As to `COc1cc(-c2ccc(SC(F)(F)F)cc2)ccc1C(O)(c1cncnc1)C(C)(C)C` (stereo not shown) [Compound 46], the pest or weed control at 50 ppm is 80 to 100%.

Take `CC(C)(C)C(O)(c1ccc(-c2ccc(C(F)(F)F)cc2)cc1)c1cncnc1` (stereo not shown) [Compound 6]: the pest or weed control at 50 ppm was 80 to 100%.

On to `COc1cc(-c2ccc(OC(F)F)cc2)ccc1C(O)(c1cncnc1)C(C)(C)C` (stereo not shown) [Compound 45], for which the pest or weed control at 50 ppm is 80 to 100%.

Consider `CC(C)(C#N)c1ccc(-c2ccc(C(O)(c3cccnc3)C(C)(C)C)cc2)cc1` (stereo not shown) [Compound 61], for which the pest or weed control at 50 ppm lay within 80 to 100%.

In the case of `CC(C)(C)C(O)(c1ccc(-c2ccccc2OC(F)(F)F)cc1)c1cncnc1` (stereo not shown) [Compound 12], the pest or weed control at 50 ppm was in the range of 60 to 79%.

With `CC(C)(C)C(O)(c1ccc(-c2ccc(SC(F)(F)F)cc2)cc1)c1cccnc1` (stereo not shown) [Compound 55], the pest or weed control at 50 ppm lay in the range of 80 to 100%.

For the molecule `COc1cc(-c2ccc(OC(F)(F)F)cc2)ccc1C(O)(c1cncnc1)C(C)(C)C` (stereo not shown) [Compound 44], the pest or weed control at 50 ppm is 80 to 100%.

As for `Cc1cc(-c2ccc(C3(C#N)CC3)cc2)ccc1C(O)(c1cncnc1)C(C)(C)C` (stereo not shown) [Compound 38], the pest or weed control at 50 ppm lay within 80 to 100%.

For the molecule `Cc1cc(-c2ccc(OC(F)(F)F)cc2)ccc1C(O)(c1cncnc1)C(C)(C)C` (stereo not shown) [Compound 34], the pest or weed control at 50 ppm was 80 to 100%.

For `CC(C)(C)C(O)(c1ccc(-c2ccc(OC(F)F)cc2)cc1)c1cccnc1` (stereo not shown) [Compound 56], the pest or weed control at 50 ppm lay within 80 to 100%.

Take `CC(C)(C)C(O)(c1ccc(-c2ccccc2)cc1)c1cncnc1` (stereo not shown) [Compound 5]: the pest or weed control at 50 ppm is 80 to 100%.

As for `Cc1cc(-c2ccc(C(C)(C)C)cc2)ccc1C(O)(c1cncnc1)C(C)(C)C` (stereo not shown) [Compound 39], the pest or weed control at 50 ppm is 80 to 100%.
